Assays:
Format in all cases: functional
NCI-H460 [1] = experiment: Chemo-sensitizing activity against human NCI-H460 cells assessed as reversal fold at 1 uM measured after 72 hrs in presence of mitoxantrone by CCK8 assay relative to control
NCI-H460 [2] = experiment: Chemo-sensitizing activity against mitoxantrone-selected ABCG2-overexpressing human NCI-H460/MX20 cells assessed as reversal fold at 1 uM measured after 72 hrs in presence of mitoxantrone by CCK8 assay relative to control
NCI-H460 [3] = experiment: Chemo-sensitizing activity against human NCI-H460 cells assessed as reversal fold at 1 uM measured after 72 hrs in presence of topotecan by CCK8 assay relative to control
NCI-H460 [4] = experiment: Chemo-sensitizing activity against mitoxantrone-selected ABCG2-overexpressing human NCI-H460/MX20 cells assessed as reversal fold at 1 uM measured after 72 hrs in presence of topotecan by CCK8 assay relative to control
NCI-H460 [5] = experiment: Chemo-sensitizing activity against human NCI-H460 cells assessed as reversal fold at 1 uM measured after 72 hrs in presence of SN-38 by CCK8 assay relative to control
NCI-H460 [6] = experiment: Chemo-sensitizing activity against mitoxantrone-selected ABCG2-overexpressing human NCI-H460/MX20 cells assessed as reversal fold at 1 uM measured after 72 hrs in presence of SN-38 by CCK8 assay relative to control
A549 [7] = experiment: Chemo-sensitizing activity against human A549 cells assessed as reversal fold at 1 uM measured after 72 hrs in presence of mitoxantrone by CCK8 assay relative to control
A549 [8] = experiment: Chemo-sensitizing activity against becatecarin-selected ABCG2-overexpressing human A549/Bec150 cells assessed as reversal fold at 1 uM measured after 72 hrs in presence of mitoxantrone by CCK8 assay relative to control
A549 [9] = experiment: Chemo-sensitizing activity against human A549 cells assessed as reversal fold at 1 uM measured after 72 hrs in presence of topotecan by CCK8 assay relative to control
A549 [10] = experiment: Chemo-sensitizing activity against becatecarin-selected ABCG2-overexpressing human A549/Bec150 cells assessed as reversal fold at 1 uM measured after 72 hrs in presence of topotecan by CCK8 assay relative to control
A549 [11] = experiment: Chemo-sensitizing activity against human A549 cells assessed as reversal fold at 1 uM measured after 72 hrs in presence of SN-38 by CCK8 assay relative to control
A549 [12] = experiment: Chemo-sensitizing activity against becatecarin-selected ABCG2-overexpressing human A549/Bec150 cells assessed as reversal fold at 1 uM measured after 72 hrs in presence of SN-38 by CCK8 assay relative to control
HEK293 [13] = experiment: Chemo-sensitizing activity against human HEK293 cells assessed as reversal fold at 1 uM measured after 72 hrs in presence of mitoxatrone by CCK8 assay relative to control
HEK293 [14] = experiment: Chemo-sensitizing activity against ABCG2-overexpressing human HEK293/482R cells assessed as reversal fold at 1 uM measured after 72 hrs in presence of mitoxatrone by CCK8 assay relative to control
HEK293 [15] = experiment: Chemo-sensitizing activity against human HEK293 cells assessed as reversal fold at 1 uM measured after 72 hrs in presence of topotecan by CCK8 assay relative to control
HEK293 [16] = experiment: Chemo-sensitizing activity against ABCG2-overexpressing human HEK293 cells assessed as reversal fold at 1 uM measured after 72 hrs in presence of topotecan by CCK8 assay relative to control
HEK293 [17] = experiment: Chemo-sensitizing activity against human HEK293 cells assessed as reversal fold at 1 uM measured after 72 hrs in presence of SN-38 by CCK8 assay relative to control
HEK293 [18] = experiment: Chemo-sensitizing activity against ABCG2-overexpressing human HEK293/482R cells assessed as reversal fold at 1 uM measured after 72 hrs in presence of SN-38 by CCK8 assay relative to control
NCI/ADR-RES [19] = experiment: Chemo-sensitizing activity against ABCB1-overexpressing human NCI/ADR-RES cells assessed as reversal fold at 1 uM measured after 72 hrs in presence of paclitaxel by CCK8 assay relative to control
OVCAR-8 [20] = experiment: Chemo-sensitizing activity against human OVCAR-8 cells assessed as reversal fold at 1 uM measured after 72 hrs in presence of vincristine by CCK8 assay relative to control
NCI/ADR-RES [21] = experiment: Chemo-sensitizing activity against ABCB1-overexpressing human NCI/ADR-RES cells assessed as reversal fold at 1 uM measured after 72 hrs in presence of vincristine by CCK8 assay relative to control
OVCAR-8 [22] = experiment: Chemo-sensitizing activity against human OVCAR-8 cells assessed as reversal fold at 1 uM measured after 72 hrs in presence of paclitaxel by CCK8 assay relative to control
OVCAR-8 [23] = experiment: Chemo-sensitizing activity against human OVCAR-8 cells assessed as reversal fold at 1 uM measured after 72 hrs in presence of colchicine by CCK8 assay relative to control
NCI/ADR-RES [24] = experiment: Chemo-sensitizing activity against ABCB1-overexpressing human NCI/ADR-RES cells assessed as reversal fold at 1 uM measured after 72 hrs in presence of colchicine by CCK8 assay relative to control
KB 3-1 [25] = experiment: Chemo-sensitizing activity against human KB 3-1 cells assessed as reversal fold at 1 uM measured after 72 hrs in presence of vincristine by CCK8 assay relative to control
KB-V1 [26] = experiment: Chemo-sensitizing activity against ABCB1-overexpressing human KB-V1 cells assessed as reversal fold at 1 uM measured after 72 hrs in presence of vincristine by CCK8 assay relative to control
KB 3-1 [27] = experiment: Chemo-sensitizing activity against human KB 3-1 cells assessed as reversal fold at 1 uM measured after 72 hrs in presence of paclitaxel by CCK8 assay relative to control
KB-V1 [28] = experiment: Chemo-sensitizing activity against ABCB1-overexpressing human KB-V1 cells assessed as reversal fold at 1 uM measured after 72 hrs in presence of paclitaxel by CCK8 assay relative to control
KB 3-1 [29] = experiment: Chemo-sensitizing activity against human KB 3-1 cells assessed as reversal fold at 1 uM measured after 72 hrs in presence of colchicine by CCK8 assay relative to control
KB-V1 [30] = experiment: Chemo-sensitizing activity against ABCB1-oveexpressing human KB-V1 cells assessed as reversal fold at 1 uM measured after 72 hrs in presence of colchicine by CCK8 assay relative to control
HEK293 [31] = experiment: Chemo-sensitizing activity against human HEK293 cells assessed as reversal fold at 1 uM measured after 72 hrs in presence of vincristine by CCK8 assay relative to control
HEK293 [32] = experiment: Chemo-sensitizing activity against ABCB1-overexpressing human HEK293/MDR19 cells assessed as reversal fold at 1 uM measured after 72 hrs in presence of vincristine by CCK8 assay relative to control
HEK293 [33] = experiment: Chemo-sensitizing activity against human HEK293 cells assessed as reversal fold at 1 uM measured after 72 hrs in presence of paclitaxel by CCK8 assay relative to control
HEK293 [34] = experiment: Chemo-sensitizing activity against ABCB1-overexpressing human HEK293/MDR19 cells assessed as reversal fold at 1 uM measured after 72 hrs in presence of paclitaxel by CCK8 assay relative to control
HEK293 [35] = experiment: Chemo-sensitizing activity against human HEK293 cells assessed as reversal fold at 1 uM measured after 72 hrs in presence of colchicine by CCK8 assay relative to control
HEK293 [36] = experiment: Chemo-sensitizing activity against ABCB1-overexpressing human HEK293/MDR19 cells assessed as reversal fold at 1 uM measured after 72 hrs in presence of colchicine by CCK8 assay relative to control

COc1ccc2c3c([nH]c2c1)[C@H](CC(C)C)N1C(=O)[C@H](CCC(=O)OC(C)(C)C)NC(=O)[C@@H]1C3
fold change (FC) (NCI-H460 [1]): 1.7
fold change (FC) (NCI-H460 [2]): 18
fold change (FC) (NCI-H460 [3]): 2.7
fold change (FC) (NCI-H460 [4]): 22.6
fold change (FC) (NCI-H460 [5]): 3
fold change (FC) (NCI-H460 [6]): 20.6
fold change (FC) (A549 [7]): 2
fold change (FC) (A549 [8]): 14.9
fold change (FC) (A549 [9]): 1.7
fold change (FC) (A549 [10]): 9.1
fold change (FC) (A549 [11]): 1.6
fold change (FC) (A549 [12]): 13.2
fold change (FC) (HEK293 [13]): 1.1
fold change (FC) (HEK293 [14]): 11.9
fold change (FC) (HEK293 [15]): 0.9
fold change (FC) (HEK293 [16]): 5.8
fold change (FC) (HEK293 [17]): 1
fold change (FC) (HEK293 [18]): 24.1

COc1cc2c(cc1OC)CN(CCc1ccc(NC(=O)c3cc(OC)c(OC)cc3NC(=O)c3cnc4ccccc4c3)cc1)CC2 [TARIQUIDAR]
fold change (FC) (NCI/ADR-RES [19]): 1040
fold change (FC) (OVCAR-8 [20]): 1.3
fold change (FC) (NCI/ADR-RES [21]): 174
fold change (FC) (OVCAR-8 [22]): 1
fold change (FC) (OVCAR-8 [23]): 1
fold change (FC) (NCI/ADR-RES [24]): 45
fold change (FC) (KB 3-1 [25]): 1.1
fold change (FC) (KB-V1 [26]): 786
fold change (FC) (KB 3-1 [27]): 0.9
fold change (FC) (KB-V1 [28]): 1281
fold change (FC) (KB 3-1 [29]): 1.2
fold change (FC) (KB-V1 [30]): 50.7
fold change (FC) (HEK293 [31]): 1.5
fold change (FC) (HEK293 [32]): 245.2
fold change (FC) (HEK293 [33]): 1
fold change (FC) (HEK293 [34]): 309
fold change (FC) (HEK293 [35]): 1
fold change (FC) (HEK293 [36]): 12.9

— ChEMBL document CHEMBL5055643, “Sophoraflavanone G Resensitizes ABCG2-Overexpressing Multidrug-Resistant Non-Small-Cell Lung Cancer Cells to Chemotherapeutic Drugs” (J Nat Prod, 2021)
